Assay results: patent publication US20110112100A1, “Hepatitis C Virus Inhibitors” (priority 2009, published 2011)
Where a name gives a salt, the structure may show the parent alone. Read-outs that look alike come from different tables or passages of the source.

What was measured:
1a-H77 replicon cells = assay: HCV 1a replicon inhibitory activity (Renilla luciferase); type: cell-based, hepatitis C virus; conditions: read-out: IC50 value (95% Confidence Intervals) pM Replicon 1A assay
Protocol: (§1) Test compounds were solubilised to 4 mM in 100% DMSO. Dilutions were made to the desired starting concentration in 100% DMSO and then 1 in 3 dilutions made, again in 100% DMSO. 0.5 μl of each sample was added to 384-well assay plates. White Lumitrac (Greiner) plates were used for the 1a and 1b replicon assays and black, clear bottomed (Greiner) plates were used for the WST-1 cytotoxity assay.
1a-H77 replicon cells (licensed from Apath LLC) were resuspended to a concentration of 1.4×10^5 cells/ml by addition of pre-warmed assay medium (Dulbecco's Modified Eagle's Medium (DMEM)+10% fetal calf serum (FCS)). 50 μl of this suspension was added to each well of a 384-well assay plate (Lumitrac, Greiner), already containing 0.5 μl of test compound.
All plates were covered with gas permeable seals and incubated at 37° C., 5% CO2 for 48 hours. After 48 hours, the assay plate was removed from the incubator and left to cool to room temperature for 15 to 30 mins. Medium was removed from the wells and 5 μl 1× lysis buffer (from Promega's Renilla Luciferase assay kit, E2820) was added to each well. The plate was incubated at room temperature for 15 mins then 15 μl 1×Assay Substrate (from the same kit) was added to each well. Luminescence was read immediately using an EnVision (Perkin Elmer) plate reader. The half maximal effective concentration (1050) values were calculated by constructing log concentration-response curves for each compound.

1b (con1) replicon cells = assay: HCV 1b replicon inhibitory activity (luciferase, Britelite Plus); type: cell-based, hepatitis C virus; conditions: read-out: IC50 value (95% Confidence Intervals) pM Replicon 1B assay
Protocol: as §1
1b (con1) replicon cells (pFK1389lucubineo/NS3-3′/ET/9B, licensed from Ralf Bartenschlager, University of Heidelberg) were resuspended to a concentration of 1.4×10^5 cells/ml by addition of pre-warmed medium (DMEM+10% FCS). 50 μl of this suspension was added to each well of a 384-well assay plate (Lumitrac, Greiner) already containing 0.5 μl of test compound.
All plates were covered with gas permeable seals and incubated at 37° C., 5% CO2 for 48 hours. After 48 hours, the plate was removed from the incubator and left to cool to room temperature for 15-30 mins. 35 ul of reconstituted Lyophilised Britelite Plus Substrate (PerkinElmer, 6016767) to medium was added to each well. Luminescence was read after 1 min but before 15 mins on an EnVision (Perkin Elmer) plate reader. The half maximal effective concentration (1050) values were calculated by constructing log concentration-response curves for each compound.

[1] = geometric mean, 95% confidence intervals in parentheses, 48 hours, medium with 10% FCS
[2] = Hepatitis C virus, geometric mean, 95% confidence intervals in parentheses, 48 hours, medium with 10% FCS

SMILES	IC50 (1a-H77 replicon cells; [1]) [pM]	IC50 (1b (con1) replicon cells; [1]) [pM]	IC50 (1a-H77 replicon cells; [2]) [pM]	IC50 (1b (con1) replicon cells; [2]) [pM]	IC50 (1a-H77 replicon cells; Hepatitis C virus, 48 h) [pM]	IC50 (1b (con1) replicon cells; Hepatitis C virus, 48 h) [pM]
COC(=O)N[C@H](C(=O)N1CCC[C@H]1c1nc(-c2ccc(-c3cnc4cc(-c5cnc([C@@H]6CCCN6C(=O)[C@@H](CC(C)C)NC(=O)OC)[nH]5)ccc4n3)cc2)c[nH]1)C(C)C [Example 54, Methyl {(2R)-1-[(2S)-2-{5-[2-(4-{2-[(2S)-1-{(2S)-2-[(methoxycarbonyl)amino]-3-methylbutanoyl}pyrrolidin-2-yl]-1H-imidaozl-4-yl}phenyl)quinoxalin-6-yl]-1H-imidazol-2-yl}pyrrolidin-1-yl]-4-methyl-1-oxopentan-2-yl}carbamate trifluoroacetic acid salt]	61.2	14.9	–	–	–	–
COC(=O)N[C@H](C(=O)N1CCC[C@H]1c1ncc(-c2ccc(-c3nc(O)c4cc(-c5cnc([C@@H]6CCCN6C(=O)[C@@H](NC(=O)OC)C(C)C)[nH]5)ccc4n3)cc2)[nH]1)C(C)C [Example 15, Methyl {(2S)-1-[(2S)-2-{5-[4-(4-hydroxy-6-{2-[(2S)-1-{(2S)-2-[(methoxycarbonyl)amino]-3-methylbutanoyl}pyrrolidin-2-yl]-1H-imidazol-5-yl}quinazolin-2-yl)phenyl]-1H-imidazol-2-yl}pyrrolidin-1-yl]-3-methyl-1-oxobutan-2-yl}carbamate]	–	–	194	102	–	–
COC(=O)N[C@H](C(=O)N1CCC[C@H]1c1nc(-c2ccc(-c3cnc4cc(-c5cnc([C@@H]6CCCN6C(=O)[C@H](CCC(N)=O)NC(C)=O)[nH]5)ccc4n3)cc2)c[nH]1)C(C)C [Example 34, Methyl {(2S)-1-[(2S)-2-{4-[4-(6-[2-[(2S)-1-(N^2-acetyl-L-glutaminyl)pyrrolidin-2-yl]-1H-imidazol-5-yl}quinoxalin-2-yl)phenyl]-1H-imidazol-2-yl}pyrrolidin-1-yl]-3-methyl-1-oxobutan-2-yl}carbamate trifluoroacetic acid salt]	–	–	–	–	5930	1430
COC(=O)N[C@H](C(=O)N1CCC[C@H]1c1nc(-c2ccc(-c3cnc4cc(-c5cnc([C@@H]6CCCN6C(=O)[C@@H](COCc6ccccc6)NC(=O)OC)[nH]5)ccc4n3)cc2)c[nH]1)C(C)C [Example 63, Methyl {(2S)-1-[(2S)-2-{4-[4-(6-{2-[(2S)-1-{(2R)-3-(benzyloxy)-2-[(methoxycarbonyl)amino]propanoyl}pyrrolidin-2-yl]-1H-imidazol-5-yl}quinoxalin-2-yl)phenyl]-1H-imidazol-2-yl}pyrrolidin-1-yl]-3-methyl-1-oxobutan-2-yl}carbamate trifluoroacetic acid salt]	–	–	–	–	4770	400
COC(=O)N[C@H](C(=O)N1CCC[C@H]1c1nc(-c2ccc(-c3cnc4cc(-c5cnc([C@@H]6CCCN6C(=O)[C@H](NC(=O)OC)[C@@H](C)OC(C)(C)C)[nH]5)ccc4n3)cc2)c[nH]1)C(C)C [Example 75, Methyl {(2S)-1-[(2S)-2-{4-[4-(6-{2-[(2S)-1-{(2R,3R)-3-tert-butoxy-2-[(methoxycarbonyl)amino]butanoyl}pyrrolidin-2-yl]-1H-imidazol-5-yl}quinoxalin-2-yl)phenyl]-1H-imidazol-2-yl}pyrrolidin-1-yl]-3-methyl-1-oxobutan-2-yl}carbamate trifluoroacetic acid salt]	–	–	–	–	4190	143
CC[C@@H](NC(C)=O)C(=O)N1CCC[C@H]1c1ncc(-c2ccc3nc(-c4ccc(-c5c[nH]c([C@@H]6CCCN6C(=O)[C@@H](NC(=O)OC)C(C)C)n5)cc4)cnc3c2)[nH]1 [Example 38, Methyl {(2S)-1-[(2S)-2-(4-{4-[6-(2-{(2S)-1-[(2R)-2-(acetylamino)butanoyl]pyrrolidin-2-yl}-1H-imidazol-5-yl)quinoxalin-2-yl]phenyl}-1H-imidazol-2-yl)pyrrolidin-1-yl]-3-methyl-1-oxobutan-2-yl} carbamate trifluoroacetic acid salt]	1500	71.9	–	–	–	–
COC(=O)N[C@H](C(=O)N1CCC[C@H]1c1nc(-c2ccc(-c3ccc4cc(-c5cnc([C@@H]6CCCN6C(=O)[C@@H](NC(=O)OC)C(C)C)[nH]5)ccc4c3)nc2)c[nH]1)C(C)C [Example 6, Methyl {(2S)-1-[(2S)-2-{5-[6-(5-{2-[(2S)-1-{(2S)-2-[(methoxycarbonyl)amino]-3-methyl-butanoyl}pyrrolidin-2-yl]-1H-imidazol-4-yl}pyridin-2-yl)naphthalen-2-yl]-1H-imidazol-2-yl}pyrrolidin-1-yl]-3-methyl-1-oxobutan-2-yl}carbamate]	–	–	56.4	3.51	–	–
COC(=O)N[C@H](C(=O)N1CCC[C@H]1c1nc(-c2ccc(-c3cnc4cc(-c5cnc([C@@H]6CCCN6C(=O)[C@@H](NC(=O)OC)C(C)C)[nH]5)cnc4c3)cc2)c[nH]1)C(C)C [Example 19, Methyl {(2S)-1-[(2S)-2-{5-[7-(4-{2-[(2S)-1-{(2S)-2-[(methoxycarbonyl)amino]-3-methylbutanoyl}pyrrolidin-2-yl]-1H-imidazol-4-yl}phenyl)-1,5-naphthyridin-3-yl]-1H-imidazol-2-yl}pyrrolidin-1-yl]-3-methyl-1-oxobutan-2-yl}carbamate]	–	–	468	38.3	–	–
COC(=O)N[C@H](C(=O)N1CCC[C@H]1c1nc(-c2ccc(-c3cnc4cc(-c5cnc([C@@H]6CCCN6C(=O)CNC(=O)c6cnc(C)cn6)[nH]5)ccc4n3)cc2)c[nH]1)C(C)C [Example 41, Methyl {(2S)-3-methyl-1-[(2S)-2-{4-[4-(6-{2-[(2S)-1-{N-[(5-methylpyrazin-2-yl)carbonyl]glycyl}pyrrolidin-2-yl]-1H-imidazol-5-yl}quinoxalin-2-yl)phenyl]-1H-imidazol-2-yl}pyrrolidin-1-yl]-1-oxobutan-2-yl}carbamate trifluoroacetic acid salt]	–	–	–	–	1950	128
COC(=O)N[C@H](C(=O)N1CCC[C@H]1c1nc(-c2ccc(-c3cnc4cc(-c5cnc([C@@H]6CCCN6C(=O)CNC(=O)CC(C)C)[nH]5)ccc4n3)cc2)c[nH]1)C(C)C [Example 33, Methyl {(2S)-3-methyl-1-[(2S)-2-(4-{4-[6-(2-{(2S)-1-[N-(3-methylbutanoyl)glycyl]pyrrolidin-2-yl}-1H-imidazol-5-yl)quinoxazolin-2-yl]phenyl}-1H-imidazol-2-yl}pyrrolidin-1-yl]-1-oxobutan-2-yl} carbamate trifluoroacetic acid salt]	2590	32.2	–	–	–	–
COC(=O)N[C@H](C(=O)N1CCC[C@H]1c1ncc(-c2ccc3cc(-c4cnc(-c5cnc([C@@H]6CCCN6C(=O)[C@@H](NC(=O)OC)C(C)C)[nH]5)cn4)ccc3c2)[nH]1)C(C)C [Example 24, Methyl {(2S)-1-[(2S)-2-{5-[6-(5-{2-[(2S)-1-{(2S)-2-[(methoxycarbonyl)amino]-3-methylbutanoyl}pyrrolidin-2-yl]-1H-imidazol-4-yl}pyrazin-2-yl)naphthalen-2-yl]-1H-imidazol-2-yl}pyrrolidin-1-yl]-3-methyl-1-oxobutan-2-yl}carbamate]	–	–	19900	2010	–	–
COC(=O)N[C@@H](COCc1ccccc1)C(=O)N1CCC[C@H]1c1ncc(-c2ccc3nc(-c4ccc(-c5c[nH]c([C@@H]6CCCN6C(=O)[C@@H](NC(=O)OC)C(C)C)n5)cc4)cnc3c2)[nH]1 [Example 48, Methyl {(2S)-1-[(2S)-2-{4-[4-(6-{2-[(2S)-1-{(2S)-3-(benzyloxy)-2-[(methoxycarbonyl)amino]propanoyl}pyrro-lidin-2-yl]-1H-imidazol-5-yl}quinoxalin-2-yl)phenyl]-1H-imidazol-2-yl}pyrrolidin-1-yl]-3-methyl-1-oxobutan-2-yl}carbamate carbamate trifluoroacetic acid salt]	27.8	6.84	–	–	–	–
COC(=O)N[C@H](C(=O)N1CCC[C@H]1c1ncc(-c2ccc(-c3cnc4cc(-c5cnc([C@@H]6CCCN6C(=O)[C@@H](NC(=O)OC)C(C)C)[nH]5)cnc4n3)cc2)[nH]1)C(C)C [Example 14, Methyl {(2S)-1-[(2S)-2-{5-[3-(4-{2-[(2S)-1-{(2S)-2-[(methoxycarbonyl)amino]-3-methyl-butanoyl}pyrrolidin-2-yl]-1H-imidazol-5-yl}phenyl)pyrido[2,3-b]pyrazin-7-yl]-1H-imidazol-2-yl}pyrrolidin-1-yl]-3-methyl-1-oxobutan-2-yl}carbamate]	–	–	882	189	–	–
